pEC50: −log10 of the molar value. Non-standard residues stand in square brackets, D forms with d. Residues, ends and D or L forms follow the SMILES beside them. hArg = N=C(N)NCCCC[C@H](N)C(=O)O; Cit = NC(=O)NCCC[C@H](N)C(=O)O; Orn = NCCC[C@H](N)C(=O)O; Dab = NCC[C@H](N)C(=O)O; Nva = CCC[C@H](N)C(=O)O; Dap = NC[C@H](N)C(=O)O
Assays:
[1] = biological target: T1, Neuropeptide S receptor (Mus musculus) (UniProt Q8BZP8); test: Agonist activity at mouse NPSR expressed in HEK293 cells assessed as increase in intracellular calcium mobilization by FLIPR relative to baseline; format: functional, cell-based
T1 sequence (whole entry): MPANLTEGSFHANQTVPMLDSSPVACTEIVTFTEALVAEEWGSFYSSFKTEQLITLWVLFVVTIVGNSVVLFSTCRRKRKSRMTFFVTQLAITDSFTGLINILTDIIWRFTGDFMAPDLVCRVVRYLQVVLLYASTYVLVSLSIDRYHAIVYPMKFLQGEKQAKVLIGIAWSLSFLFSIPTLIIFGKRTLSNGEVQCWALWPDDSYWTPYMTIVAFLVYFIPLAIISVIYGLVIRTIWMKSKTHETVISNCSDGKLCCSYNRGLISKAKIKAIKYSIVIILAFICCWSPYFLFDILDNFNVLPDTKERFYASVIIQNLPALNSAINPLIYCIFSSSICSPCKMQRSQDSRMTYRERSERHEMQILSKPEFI

Neuropeptide S receptor = biological target: T2, Neuropeptide S receptor (Mus musculus, UniProt Q8BZP8); test: Agonist activity at mouse NPSR expressed in HEK293 cells assessed as increase in intracellular calcium mobilization by FLIPR; format: functional, cell-based
T2 sequence (Q8BZP8 whole entry): T1 sequence (whole entry)

Compound | Emax [1] | pEC50 (Neuropeptide S receptor)
CSCC[C@H](NC(=O)CNC(=O)[C@@H](NC(=O)CNC(=O)[C@@H](NC(=O)CNC(=O)[C@H](CC(N)=O)NC(=O)[C@H](CN)NC(=O)[C@H](Cc1ccccc1)NC(=O)[C@@H](N)CO)C(C)C)[C@@H](C)O)C(=O)N[C@@H](CCCCN)C(=O)N[C@@H](CCCCN)C(=O)N[C@H](C(=O)N[C@@H](CO)C(=O)N[C@@H](Cc1ccccc1)C(=O)N[C@@H](CCC(N)=O)C(=O)N[C@@H](CCCNC(=N)N)C(=O)N[C@@H](C)C(=O)N[C@@H](CCCCN)C(=O)N[C@@H](CO)C(=O)O)[C@@H](C)O (H-SF[Dap]NGVGTGMKKTSFQRAKS-OH) | 196% | 6.62
H-SFCNGVGTGMKKTSFQRAKS-OH | 256% | 6.43
H-SFGNGVGTGMKKTSFQRAKS-OH | 264% | 5.90
H-SFHNGVGTGMKKTSFQRAKS-OH | 273% | 5.81
H-SFKNGVGTGMKKTSFQRAKS-OH | 290% | 7.74
H-SFQNGVGTGMKKTSFQRAKS-OH | 295% | 6.89
H-SFRNGVGTGMKKTSFQRAKS-OH [NEUROPEPTIDE S] | 234% | 7.92
H-SFTNGVGTGMKKTSFQRAKS-OH | 272% | 6.06

Further compounds by rising pEC50 (Neuropeptide S receptor), results first:

Emax [1] | pEC50 (Neuropeptide S receptor) | Compound
210% | 6.25 | H-SFRQGVGTGMKKTSFQRAKS-OH
207% | 6.69 | CSCC[C@H](NC(=O)CNC(=O)[C@@H](NC(=O)CNC(=O)[C@@H](NC(=O)CNC(=O)[C@H](CC(N)=O)NC(=O)[C@H](CCN)NC(=O)[C@H](Cc1ccccc1)NC(=O)[C@@H](N)CO)C(C)C)[C@@H](C)O)C(=O)N[C@@H](CCCCN)C(=O)N[C@@H](CCCCN)C(=O)N[C@H](C(=O)N[C@@H](CO)C(=O)N[C@@H](Cc1ccccc1)C(=O)N[C@@H](CCC(N)=O)C(=O)N[C@@H](CCCNC(=N)N)C(=O)N[C@@H](C)C(=O)N[C@@H](CCCCN)C(=O)N[C@@H](CO)C(=O)O)[C@@H](C)O (H-SF[Dab]NGVGTGMKKTSFQRAKS-OH)
285% | 6.78 | CSCC[C@H](NC(=O)CNC(=O)[C@@H](NC(=O)CNC(=O)[C@@H](NC(=O)CNC(=O)[C@H](CC(N)=O)NC(=O)[C@H](CCCNC(N)=O)NC(=O)[C@H](Cc1ccccc1)NC(=O)[C@@H](N)CO)C(C)C)[C@@H](C)O)C(=O)N[C@@H](CCCCN)C(=O)N[C@@H](CCCCN)C(=O)N[C@H](C(=O)N[C@@H](CO)C(=O)N[C@@H](Cc1ccccc1)C(=O)N[C@@H](CCC(N)=O)C(=O)N[C@@H](CCCNC(=N)N)C(=O)N[C@@H](C)C(=O)N[C@@H](CCCCN)C(=O)N[C@@H](CO)C(=O)O)[C@@H](C)O (H-SF[Cit]NGVGTGMKKTSFQRAKS-OH)
207% | 6.87 | CCC[C@H](NC(=O)[C@H](Cc1ccccc1)NC(=O)[C@@H](N)CO)C(=O)N[C@@H](CC(N)=O)C(=O)NCC(=O)N[C@H](C(=O)NCC(=O)N[C@H](C(=O)NCC(=O)N[C@@H](CCSC)C(=O)N[C@@H](CCCCN)C(=O)N[C@@H](CCCCN)C(=O)N[C@H](C(=O)N[C@@H](CO)C(=O)N[C@@H](Cc1ccccc1)C(=O)N[C@@H](CCC(N)=O)C(=O)N[C@@H](CCCNC(=N)N)C(=O)N[C@@H](C)C(=O)N[C@@H](CCCCN)C(=O)N[C@@H](CO)C(=O)O)[C@@H](C)O)[C@@H](C)O)C(C)C (H-SF[Nva]NGVGTGMKKTSFQRAKS-OH)
253% | 6.99 | H-SFRTGVGTGMKKTSFQRAKS-OH
318% | 7.50 | CSCC[C@H](NC(=O)CNC(=O)[C@@H](NC(=O)CNC(=O)[C@@H](NC(=O)CNC(=O)[C@H](CC(N)=O)NC(=O)[C@H](CCCN)NC(=O)[C@H](Cc1ccccc1)NC(=O)[C@@H](N)CO)C(C)C)[C@@H](C)O)C(=O)N[C@@H](CCCCN)C(=O)N[C@@H](CCCCN)C(=O)N[C@H](C(=O)N[C@@H](CO)C(=O)N[C@@H](Cc1ccccc1)C(=O)N[C@@H](CCC(N)=O)C(=O)N[C@@H](CCCNC(=N)N)C(=O)N[C@@H](C)C(=O)N[C@@H](CCCCN)C(=O)N[C@@H](CO)C(=O)O)[C@@H](C)O (H-SF[Orn]NGVGTGMKKTSFQRAKS-OH)
288% | 7.97 | CSCC[C@H](NC(=O)CNC(=O)[C@@H](NC(=O)CNC(=O)[C@@H](NC(=O)CNC(=O)[C@H](CC(N)=O)NC(=O)[C@H](CCCCNC(=N)N)NC(=O)[C@H](Cc1ccccc1)NC(=O)[C@@H](N)CO)C(C)C)[C@@H](C)O)C(=O)N[C@@H](CCCCN)C(=O)N[C@@H](CCCCN)C(=O)N[C@H](C(=O)N[C@@H](CO)C(=O)N[C@@H](Cc1ccccc1)C(=O)N[C@@H](CCC(N)=O)C(=O)N[C@@H](CCCNC(=N)N)C(=O)N[C@@H](C)C(=O)N[C@@H](CCCCN)C(=O)N[C@@H](CO)C(=O)O)[C@@H](C)O (H-SF[hArg]NGVGTGMKKTSFQRAKS-OH)

From ChEMBL document CHEMBL1152211, “Structure-activity study at positions 3 and 4 of human neuropeptide S” (Bioorg Med Chem, 2008)
